Experimental data reported in ChEMBL document CHEMBL4507321 (2021).
Active and inactive are the calls of the source. The calls are words filed in the database; no cut-off is given here.

Assays:
[1] = target: Delta-type opioid receptor (Homo sapiens) (UniProt P41143); settings: Compound concentration 10.0 uM
[2] = target: 5-hydroxytryptamine receptor 2A (Homo sapiens) (UniProt P28223); settings: Compound concentration 10.0 uM
[3] = target: 5-hydroxytryptamine receptor 6 (Homo sapiens) (UniProt P50406); settings: Compound concentration 10.0 uM
[4] = target: Sigma non-opioid intracellular receptor 1 (Homo sapiens) (UniProt Q99720); settings: Compound concentration 10.0 uM
[5] = target: Sigma intracellular receptor 2 (Homo sapiens) (UniProt Q5BJF2); settings: Compound concentration 10.0 uM
[6] = target: Alpha-2A adrenergic receptor (Homo sapiens, UniProt P08913); experiment: GPCRScan assay: inhibition of Alpha2A; design: radioligand conc. used [nm] 1.0 – 3.0, parental cells stable MDCK
[7] = target: D(1A) dopamine receptor (Homo sapiens) (UniProt P21728); settings: Compound concentration 10.0 uM
[8] = target: Alpha-1D adrenergic receptor (Homo sapiens) (UniProt P25100); settings: Compound concentration 10.0 uM
[9] = target: Sodium-dependent noradrenaline transporter (Homo sapiens) (UniProt P23975); settings: Compound concentration 10.0 uM
MEF = experiment: Cell growth of Fucci MEFs; format: functional, Mus musculus; settings: Assay publication PMID: 30069049; Compound concentration 1 uM
[10] = target: D(2) dopamine receptor (Homo sapiens) (UniProt P14416); settings: Compound concentration 10.0 uM
[11] = target: 5-hydroxytryptamine receptor 3A (Homo sapiens) (UniProt P46098); settings: Compound concentration 10.0 uM
[12] = target: T1, GABA-A receptor; anion channel (Rattus norvegicus) (UniProt O09028+P15431+P18506+P18508+P19969+P20236+P23574+P23576+P28471+P28473+P30191+P62813+P63079+P63138+Q91ZM7+Q9ES14); settings: Compound concentration 10.0 uM
[13] = target: Histamine H3 receptor (Homo sapiens) (UniProt Q9Y5N1); settings: Compound concentration 10.0 uM
[14] = target: D(4) dopamine receptor (Homo sapiens) (UniProt P21917); settings: Compound concentration 10.0 uM
[15] = target: Alpha-2C adrenergic receptor (Homo sapiens) (UniProt P18825); settings: Compound concentration 10.0 uM
[16] = target: Muscarinic acetylcholine receptor M1 (Homo sapiens) (UniProt P11229); settings: Compound concentration 10.0 uM
[17] = target: Beta-1 adrenergic receptor (Homo sapiens) (UniProt P08588); settings: Compound concentration 10.0 uM
Sequence of Beta-1 adrenergic receptor (Homo sapiens) (P08588 whole entry, looked up): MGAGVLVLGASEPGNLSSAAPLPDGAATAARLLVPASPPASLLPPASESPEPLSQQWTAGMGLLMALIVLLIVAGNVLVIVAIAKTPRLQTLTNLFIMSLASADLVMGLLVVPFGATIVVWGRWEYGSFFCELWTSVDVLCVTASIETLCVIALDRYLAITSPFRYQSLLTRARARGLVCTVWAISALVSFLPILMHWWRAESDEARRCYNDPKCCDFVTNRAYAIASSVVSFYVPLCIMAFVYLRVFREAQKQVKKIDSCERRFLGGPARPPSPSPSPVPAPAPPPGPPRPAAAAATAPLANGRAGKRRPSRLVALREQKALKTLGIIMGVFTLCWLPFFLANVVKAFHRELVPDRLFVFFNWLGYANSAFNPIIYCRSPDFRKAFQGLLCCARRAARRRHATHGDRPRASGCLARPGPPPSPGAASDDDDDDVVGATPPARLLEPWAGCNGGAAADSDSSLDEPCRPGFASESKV

[18] = target: Alpha-2A adrenergic receptor (Homo sapiens) (UniProt P08913); settings: Compound concentration 10.0 uM
[19] = target: D(1B) dopamine receptor (Homo sapiens) (UniProt P21918); settings: Compound concentration 10.0 uM
[20] = target: Alpha-2B adrenergic receptor (Homo sapiens) (UniProt P18089); settings: Compound concentration 10.0 uM
Sequence of Alpha-2B adrenergic receptor (Homo sapiens) (P18089 whole entry): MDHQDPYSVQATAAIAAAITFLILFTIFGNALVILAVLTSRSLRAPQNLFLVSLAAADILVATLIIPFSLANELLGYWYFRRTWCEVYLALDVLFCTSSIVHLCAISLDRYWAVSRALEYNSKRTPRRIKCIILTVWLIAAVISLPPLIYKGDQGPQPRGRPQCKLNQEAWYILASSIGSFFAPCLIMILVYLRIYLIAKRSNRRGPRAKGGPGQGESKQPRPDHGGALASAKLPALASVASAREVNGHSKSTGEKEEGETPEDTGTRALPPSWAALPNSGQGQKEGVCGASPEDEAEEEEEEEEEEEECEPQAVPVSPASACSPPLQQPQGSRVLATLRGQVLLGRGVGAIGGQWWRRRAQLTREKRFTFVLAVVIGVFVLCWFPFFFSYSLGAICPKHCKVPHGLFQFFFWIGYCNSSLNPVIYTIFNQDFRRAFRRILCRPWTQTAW

[21] = target: T2, Sodium-dependent dopamine transporter (Homo sapiens, UniProt Q01959); settings: Compound concentration 10.0 uM
T2 sequence (Q01959 whole entry): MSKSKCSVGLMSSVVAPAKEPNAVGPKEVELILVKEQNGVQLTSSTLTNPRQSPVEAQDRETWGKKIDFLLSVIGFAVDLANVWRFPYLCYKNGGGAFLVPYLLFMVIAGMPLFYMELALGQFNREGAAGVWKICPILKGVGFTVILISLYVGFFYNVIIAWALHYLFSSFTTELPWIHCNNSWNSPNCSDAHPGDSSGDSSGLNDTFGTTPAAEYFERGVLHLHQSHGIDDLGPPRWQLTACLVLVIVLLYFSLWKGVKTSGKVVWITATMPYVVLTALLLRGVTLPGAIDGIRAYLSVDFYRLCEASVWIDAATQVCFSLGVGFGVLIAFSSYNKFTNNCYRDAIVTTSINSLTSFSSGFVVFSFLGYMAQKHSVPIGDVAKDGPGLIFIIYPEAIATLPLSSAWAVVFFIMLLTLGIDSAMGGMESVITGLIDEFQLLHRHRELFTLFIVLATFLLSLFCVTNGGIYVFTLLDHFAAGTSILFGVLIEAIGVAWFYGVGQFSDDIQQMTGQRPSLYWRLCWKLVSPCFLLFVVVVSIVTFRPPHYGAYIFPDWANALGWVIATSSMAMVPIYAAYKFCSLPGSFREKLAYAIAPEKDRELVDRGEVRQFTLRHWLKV

[22] = target: 5-hydroxytryptamine receptor 7 (Homo sapiens) (UniProt P34969); settings: Compound concentration 10.0 uM
Sequence of 5-hydroxytryptamine receptor 7 (Homo sapiens) (P34969 whole entry): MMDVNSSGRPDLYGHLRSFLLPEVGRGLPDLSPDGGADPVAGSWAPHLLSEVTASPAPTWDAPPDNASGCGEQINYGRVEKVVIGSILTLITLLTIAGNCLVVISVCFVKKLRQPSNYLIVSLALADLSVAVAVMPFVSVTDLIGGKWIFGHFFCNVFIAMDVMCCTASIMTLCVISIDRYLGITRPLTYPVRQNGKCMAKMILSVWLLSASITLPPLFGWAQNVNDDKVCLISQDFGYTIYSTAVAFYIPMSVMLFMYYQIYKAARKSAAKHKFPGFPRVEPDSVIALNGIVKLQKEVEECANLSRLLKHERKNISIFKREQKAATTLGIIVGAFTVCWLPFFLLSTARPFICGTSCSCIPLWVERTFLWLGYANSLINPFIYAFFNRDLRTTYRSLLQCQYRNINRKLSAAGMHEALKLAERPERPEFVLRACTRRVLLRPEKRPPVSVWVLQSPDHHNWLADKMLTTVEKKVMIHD

[23] = target: Sodium-dependent serotonin transporter (Homo sapiens) (UniProt P31645); settings: Compound concentration 10.0 uM
[24] = target: 5-hydroxytryptamine receptor 1A (Homo sapiens) (UniProt P08908); settings: Compound concentration 10.0 uM
[25] = target: D(3) dopamine receptor (Homo sapiens) (UniProt P35462); settings: Compound concentration 10.0 uM
Sequence of D(3) dopamine receptor (Homo sapiens) (P35462 whole entry): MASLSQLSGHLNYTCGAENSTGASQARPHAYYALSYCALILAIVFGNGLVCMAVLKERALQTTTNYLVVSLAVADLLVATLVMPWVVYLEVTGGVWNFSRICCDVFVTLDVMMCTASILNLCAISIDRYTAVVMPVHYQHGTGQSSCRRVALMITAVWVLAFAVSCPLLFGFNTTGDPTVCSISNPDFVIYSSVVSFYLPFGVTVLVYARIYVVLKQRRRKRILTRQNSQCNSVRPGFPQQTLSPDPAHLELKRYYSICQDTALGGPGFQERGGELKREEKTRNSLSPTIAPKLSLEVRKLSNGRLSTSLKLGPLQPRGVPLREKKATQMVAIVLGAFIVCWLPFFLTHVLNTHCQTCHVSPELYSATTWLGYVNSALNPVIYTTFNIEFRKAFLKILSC

Rattus norvegicus = species on record: Rattus norvegicus; settings: Compound concentration 10.0 uM
[26] = target: Muscarinic acetylcholine receptor M3 (Homo sapiens) (UniProt P20309); settings: Compound concentration 10.0 uM
[27] = target: 5-hydroxytryptamine receptor 1E (Homo sapiens) (UniProt P28566); settings: Compound concentration 10.0 uM
Sequence of 5-hydroxytryptamine receptor 1E (Homo sapiens) (P28566 whole entry): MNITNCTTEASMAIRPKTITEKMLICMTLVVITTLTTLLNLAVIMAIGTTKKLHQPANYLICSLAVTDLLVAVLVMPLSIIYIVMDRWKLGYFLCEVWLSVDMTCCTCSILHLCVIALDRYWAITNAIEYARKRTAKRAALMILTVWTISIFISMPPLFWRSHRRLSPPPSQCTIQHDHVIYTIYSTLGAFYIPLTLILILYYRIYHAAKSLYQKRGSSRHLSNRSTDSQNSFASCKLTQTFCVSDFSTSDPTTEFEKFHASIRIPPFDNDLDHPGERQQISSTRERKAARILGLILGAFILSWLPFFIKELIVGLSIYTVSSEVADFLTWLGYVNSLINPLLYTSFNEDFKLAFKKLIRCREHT

[28] = target: T1, GABA-A receptor; anion channel (Rattus norvegicus); settings: Compound concentration 10.0 uM; remark: listed apart in the source
[29] = target: Alpha-1B adrenergic receptor (Homo sapiens) (UniProt P35368); settings: Compound concentration 10.0 uM
[30] = target: Muscarinic acetylcholine receptor M2 (Homo sapiens) (UniProt P08172); settings: Compound concentration 10.0 uM
[31] = target: Beta-2 adrenergic receptor (Homo sapiens) (UniProt P07550); settings: Compound concentration 10.0 uM
Sequence of Beta-2 adrenergic receptor (Homo sapiens) (P07550 whole entry, looked up): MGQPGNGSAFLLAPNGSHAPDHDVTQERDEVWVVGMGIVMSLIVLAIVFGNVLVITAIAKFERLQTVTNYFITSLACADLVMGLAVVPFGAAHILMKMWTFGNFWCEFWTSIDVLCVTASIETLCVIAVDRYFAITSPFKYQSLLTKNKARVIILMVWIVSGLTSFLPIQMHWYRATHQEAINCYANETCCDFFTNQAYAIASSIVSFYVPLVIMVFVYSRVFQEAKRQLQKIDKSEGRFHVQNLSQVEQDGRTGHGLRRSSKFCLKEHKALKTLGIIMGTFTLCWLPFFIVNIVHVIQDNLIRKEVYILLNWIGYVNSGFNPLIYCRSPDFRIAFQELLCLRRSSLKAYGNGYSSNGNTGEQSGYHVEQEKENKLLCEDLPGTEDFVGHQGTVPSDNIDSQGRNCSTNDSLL

[32] = target: Alpha-1A adrenergic receptor (Homo sapiens) (UniProt P35348); settings: Compound concentration 10.0 uM
Sequence of Alpha-1A adrenergic receptor (Homo sapiens) (P35348 whole entry): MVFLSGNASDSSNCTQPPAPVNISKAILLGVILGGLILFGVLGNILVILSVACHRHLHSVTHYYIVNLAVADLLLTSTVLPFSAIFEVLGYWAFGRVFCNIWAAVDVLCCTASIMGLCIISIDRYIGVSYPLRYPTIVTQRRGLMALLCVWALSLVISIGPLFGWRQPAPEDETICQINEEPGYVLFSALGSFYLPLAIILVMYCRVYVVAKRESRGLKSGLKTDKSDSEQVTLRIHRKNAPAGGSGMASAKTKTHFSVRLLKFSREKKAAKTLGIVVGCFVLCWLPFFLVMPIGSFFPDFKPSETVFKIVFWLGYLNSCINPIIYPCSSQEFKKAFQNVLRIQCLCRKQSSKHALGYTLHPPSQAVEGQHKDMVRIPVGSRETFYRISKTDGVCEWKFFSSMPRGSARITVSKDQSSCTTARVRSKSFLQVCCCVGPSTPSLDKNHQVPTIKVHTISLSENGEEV

[33] = target: Kappa-type opioid receptor (Homo sapiens) (UniProt P41145); settings: Compound concentration 10.0 uM
Sequence of Kappa-type opioid receptor (Homo sapiens) (P41145 whole entry): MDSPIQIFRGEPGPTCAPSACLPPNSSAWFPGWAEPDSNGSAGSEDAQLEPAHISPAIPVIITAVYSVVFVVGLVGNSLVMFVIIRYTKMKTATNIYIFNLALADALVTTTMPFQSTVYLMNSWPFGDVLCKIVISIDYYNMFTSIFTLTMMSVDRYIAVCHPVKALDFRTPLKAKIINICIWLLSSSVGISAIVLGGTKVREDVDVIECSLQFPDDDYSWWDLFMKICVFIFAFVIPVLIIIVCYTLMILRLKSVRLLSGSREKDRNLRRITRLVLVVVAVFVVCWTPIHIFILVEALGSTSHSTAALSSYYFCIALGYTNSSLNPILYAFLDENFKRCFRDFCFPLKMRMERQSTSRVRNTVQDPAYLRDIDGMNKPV

[34] = target: 5-hydroxytryptamine receptor 5A (Homo sapiens) (UniProt P47898); settings: Compound concentration 10.0 uM
[35] = target: 5-hydroxytryptamine receptor 1B (Homo sapiens) (UniProt P28222); settings: Compound concentration 10.0 uM
[36] = target: T2, Sodium-dependent dopamine transporter; experiment: GPCRScan assay: inhibition of DAT; design: radioligand conc. used [nm] 3.6 – 16.0, parental cells stable HEK
[37] = target: Histamine H2 receptor (Homo sapiens) (UniProt P25021); settings: Compound concentration 10.0 uM
[38] = target: Mu-type opioid receptor (Homo sapiens) (UniProt P35372); settings: Compound concentration 10.0 uM
[39] = target: 5-hydroxytryptamine receptor 2B (Homo sapiens) (UniProt P41595); settings: Compound concentration 10.0 uM
[40] = target: 5-hydroxytryptamine receptor 2C (Homo sapiens) (UniProt P28335); settings: Compound concentration 10.0 uM
Sequence of 5-hydroxytryptamine receptor 2C (Homo sapiens) (P28335 whole entry): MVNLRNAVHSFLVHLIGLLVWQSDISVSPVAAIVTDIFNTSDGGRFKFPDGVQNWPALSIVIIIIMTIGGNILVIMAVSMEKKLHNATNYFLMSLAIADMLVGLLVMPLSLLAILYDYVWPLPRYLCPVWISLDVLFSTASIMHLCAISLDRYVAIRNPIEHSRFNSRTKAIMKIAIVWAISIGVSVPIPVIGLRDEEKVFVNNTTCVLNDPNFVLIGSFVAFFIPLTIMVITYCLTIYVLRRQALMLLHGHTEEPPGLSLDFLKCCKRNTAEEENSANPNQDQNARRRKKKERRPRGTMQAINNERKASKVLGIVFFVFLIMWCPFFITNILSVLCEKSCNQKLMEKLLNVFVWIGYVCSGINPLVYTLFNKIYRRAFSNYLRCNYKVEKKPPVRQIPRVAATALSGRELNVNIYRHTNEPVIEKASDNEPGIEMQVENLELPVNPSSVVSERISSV

[41] = target: Histamine H1 receptor (Homo sapiens) (UniProt P35367); settings: Compound concentration 10.0 uM
[42] = target: Methionine aminopeptidase 2 (Homo sapiens, UniProt P50579); experiment: Biochemical activity-MetAP2 using Co
[43] = target: Muscarinic acetylcholine receptor M5 (Homo sapiens) (UniProt P08912); settings: Compound concentration 10.0 uM
[44] = target: Muscarinic acetylcholine receptor M4 (Homo sapiens) (UniProt P08173); settings: Compound concentration 10.0 uM
[45] = target: Beta-3 adrenergic receptor (Homo sapiens) (UniProt P13945); settings: Compound concentration 10.0 uM
[46] = target: 5-hydroxytryptamine receptor 1D (Homo sapiens) (UniProt P28221); settings: Compound concentration 10.0 uM
[47] = target: Histamine H4 receptor (Homo sapiens) (UniProt Q9H3N8); settings: Compound concentration 10.0 uM
EMRK1184 = experiment: Proliferation assay with EMRK1184 lymphoma cells; format: functional, cell-based; settings: Mus musculus

Sequence of Delta-type opioid receptor (Homo sapiens) (P41143 whole entry): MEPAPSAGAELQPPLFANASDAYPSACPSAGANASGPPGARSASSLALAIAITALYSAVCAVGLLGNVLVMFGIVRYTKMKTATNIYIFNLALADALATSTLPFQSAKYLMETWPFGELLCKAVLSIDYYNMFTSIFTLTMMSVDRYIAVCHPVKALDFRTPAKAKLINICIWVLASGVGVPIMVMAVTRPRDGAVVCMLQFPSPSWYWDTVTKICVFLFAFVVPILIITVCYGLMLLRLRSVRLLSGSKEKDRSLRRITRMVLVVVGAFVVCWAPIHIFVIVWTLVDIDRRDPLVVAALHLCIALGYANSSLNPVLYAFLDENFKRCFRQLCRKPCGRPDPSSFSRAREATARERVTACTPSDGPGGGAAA

O=C(NNS(=O)(=O)c1ccccc1)c1cc(-c2ccnnc2)ccc1F [WM-2474]
inhibition [1]: 7.99%
inhibition [2]: 11.8%
inhibition [3]: 2.65%
inhibition [4]: 19.1%
inhibition [5]: 40.1%
Ki [6]: > 10 µM
pKi [6]: < 5
inhibition [7]: 8.58%
inhibition [8]: 17.4%
inhibition [9]: -2.4%
Cell cycle effect (MEF): 0
inhibition [10]: 14.7%
inhibition [11]: 4.55%
inhibition [12]: 34.6%
inhibition [13]: 15.5%
inhibition [14]: 9.83%
inhibition [15]: -5.42%
inhibition [16]: 43.3%
inhibition [17]: 11.2%
inhibition [18]: 68.5%
inhibition [19]: 5.79%
inhibition [20]: 3.07%
inhibition [21]: 80.2%
inhibition [22]: -1.87%
inhibition [23]: 6.15%
inhibition [24]: 23.1%
inhibition [25]: -8.61%
inhibition (Rattus norvegicus): -3.6%
inhibition [26]: 13%
inhibition [27]: 13.1%
inhibition [28]: 4.55%
inhibition [29]: -3.44%
inhibition [30]: -5.57%
inhibition [31]: 10.4%
inhibition [32]: 18.6%
inhibition [33]: -5.1%
inhibition [34]: -0.06%
inhibition [35]: 11%
Ki [36]: > 10 µM
pKi [36]: < 5
inhibition [37]: -5.93%
inhibition [38]: 26.1%
inhibition [39]: 40.1%
inhibition [40]: 7.81%
inhibition [41]: -2.04%
IC50 [42]: > 50 µM (not active)

O=C(NNS(=O)(=O)c1ccccc1F)c1cc(F)cc(-c2ccccn2)c1 [WM-1119]
inhibition [1]: 20.6%
inhibition [2]: -7.37%
inhibition [43]: -8.87%
inhibition [44]: 20.4%
inhibition [4]: 35.7%
inhibition [5]: 19.9%
inhibition [45]: 16.3%
inhibition [46]: -0.66%
inhibition [7]: -3.67%
inhibition [8]: 3.2%
Cell cycle effect (MEF): 0
inhibition [10]: 79.6%
inhibition [11]: 32.9%
inhibition [12]: 75.7%
inhibition [14]: 23.8%
inhibition [15]: 10.2%
inhibition [16]: 0.14%
inhibition [17]: -0.13%
inhibition [47]: -2.44%
inhibition [19]: 4.57%
inhibition [20]: -3.78%
inhibition [22]: -3.75%
inhibition [24]: 16%
IC50 (EMRK1184): 0.25 µM (active)
inhibition [25]: 4.97%
inhibition (Rattus norvegicus): 47%
inhibition [27]: 13.8%
inhibition [28]: 11.7%
inhibition [29]: 7.18%
inhibition [30]: 15.9%
inhibition [31]: 13.2%
inhibition [32]: 9.59%
inhibition [33]: 5.23%
inhibition [34]: -9.77%
inhibition [35]: 13.6%
inhibition [37]: 5.32%
inhibition [38]: 3.45%
inhibition [39]: 2.94%
inhibition [40]: 6.46%
inhibition [41]: -8.33%
